The values that follow come from patent publication US12685777B2, “Compositions, systems, and methods for modulating a target gene” (The Board of Trustees of the Leland Stanford Junior …, priority 2022, dated 2026).

A value given as a limit tells only on which side of the number the result lay.

Test [1] deals with BRD4, Pol II ser 2 phos, H3K27ac occupancy. The experiment in a line: ChIP-seq of BRD4, Pol II ser 2 phos, H3K27ac in KARPAS422 cells. The test is classed as cell-based, human. The protocol: Cells were washed in PBS and crosslinked for 12 minutes in CiA Fix Buffer (50 mM HEPES pH 8.0, 1 mM EDTA, 0.5 mM EGTA, 100 mM NaCl) with addition of formaldehyde to a final concentration of 1%. The crosslinking reaction was quenched by glycine added at 0.125 M final concentration. Crosslinked cells were centrifuged at 1,000×g for 5 minutes. Nuclei were prepared by 10 minute incubation of resuspended pellet in CiA NP-Rinse 1 buffer (50 mM HEPES pH 8.0, 140 mM NaCl, 1 mM EDTA, 10% glycerol, 0.5% IPEGAL CA-630, 0.25% Triton X100) followed by wash in CIA NP-Rinse 2 buffer (10 mM Tris pH 8.0, 1 mM EDTA, 0.5 mM EGTA, 200 mM NaCl). The pellet was resuspended in CiA Covaris Shearing Buffer (0.1% SDS, 1 mM EDTA pH 8.0, 10 mM Tris HCl pH 8.0) with 1000× protease inhibitors (Roche) and sonicated for 20 minutes with Covaris E220 sonicator (Peak Power 140, Duty Factor 5.0, Cycles/Burst 200). The distribution of fragments was confirmed with agarose gel. 300 μL of chromatin per ChIP was used with anti-BRD4 antibodies (Cell Signaling E2A7X). 50 μg of chromatin was used with anti-Pol II ser 2 phos (Abcam ab5095) and anti-Pol II ser 5 phos (ActiveMotif 3E8) antibodies. 25 μg of chromatin was used with anti-H3K27ac (Abcam ab4729). For each Pol II ser 2 phos, Pol II ser 5 phos, and H3K27ac ChIP, exactly 20 ng (for Pol II ser 2 phos and ser 5 phos) or 50 ng (for H3K27ac) Drosophila chromatin (ActiveMotif #53083) was spiked-in with 2 μL spike-in-chromatin-specific antibody (ActiveMotif #61686). After overnight incubation at 4° C. in IP buffer (50 mM HEPES pH 7.5, 300 mM NaCl, 1 mM EDTA, 1% Triton X100, 0.1% sodium deoxycholic acid salt (DOC), 0.1% SDS), Ips were washed twice with IP buffer, once with DOC buffer (10 mM Tris pH 8, 0.25 M LiCl, 0.5% IPEGAL CA-630, 0.5% sodium deoxycholic acid salt (DOC), 1 mM EDTA), and, once with 10 mM Tris/1 mM EDTA buffer (TE) pH 8. Ips and inputs were reverse-crosslinked in TE/0.5% SDS/0.5 μg/μL proteinase K for 55° C./3 hours then 65° C./18 hours, then DNA was purified using a PCR cleanup spin column (Takara #74609). The sequencing library preparation was performed using NEBNext Ultra II DNA kit (#E7645S). Libraries were sequenced on an Illumina NovaSeq (Novogene).
The data quality was checked using fastqc. The raw reads were trimmed from adapters with trim_galore (parameters: —paired—255 Ilumine) and raw reads were aligned to hg38 human genome assembly and the dm6 fly genome assembly using bowtie2 (parameters: —local—maxins 1000). Low quality reads, duplicated reads and reads with multiple alignments were removed using samtools (Li et al., Bioinformatics (2009) 25: 2078-2079) and Picard (broadinstitute.github.io/picard/). Macs2 was used to map position of peaks with FDR cutoff of 0.05. Bedtools (Quinlan et al, Bioinformatics (2010) 26: 841-842) was used to find consensus set of peaks by merging peaks across multiple conditions (bedtools merge), count number of reads in peaks (bedtools intersect—c) and generate genome coverage (bedtools genomecov-bga). deepTools (Ramirez et al., Nucleic Acids Research (2016) 44: W160-W165). […] This procedure was carried out on a per-antigen basis (i.e., the H3K27ac ChIPs were treated separately from the Pol II ser 2 phos ChIPs which were separate from the Poll II ser 5 phos ChIPs). The average percentage of reads in each sample that mapped to the fly genome was 1.8±1.4% (mean±s.d.). All browser tracks and metaprofiles shown were calculated with spike-in normalized and input-subtracted data. The peak differential analysis and PCA analysis was performed using DESeq2^82.
BRD4 and other BET proteins have previously been implicated largely in transcriptional elongation, particularly in mediating P-TEFb/CDK9 activation of RNA Polymerase II ([…]) elongation activity by phosphorylation of serine 2 of the C-terminal domain (CTD) of Pol II ([…] ser 2 phos). […]

For test [2], the system named is gene expression in KARPAS422 cells. As to the kind of experiment: RNA-seq of drug-treated KARPAS422 cells. It counts as cell-based, human. As to the method: 12. RNA Extraction, qPCR, and Sequencing Library Preparation Cells were plated at 1 M/mL and harvested in TRIsure (Bioline #38033). RNA was extracted using Direct-zol RNA MicroPrep columns (Zymo #R^2062) treated with DNAseI. cDNA was prepared for RT-qPCR using the SensiFAST cDNA preparation kit according to manufacturer instructions (Bioline #65054). 1 μL of cDNA was used per RT-qPCR reaction prepared with SYBR Lo-ROX (Bioline #94020). For sequencing library preparation, polyA-containing transcripts were enriched for (NEB #E7490S) and prepared into paired-end libraries (NEB #E7760S). Libraries were sequenced on an Illumina NovaSeq (Novogene). 13. Western Blots
(www.bioinformatics.babraham.ac.uk/projects/fastqc/) and trimmed from adapters using cutadapt (Martin, M., EMBnet.journal (2011) 17: 10) using parameters cutadapt—a […] -b (SEQ ID NO:01) […] (SEQ ID NO:02) -nextseq-trim=20-minimum-length 1. Transcripts were quantified using kallisto (Bray et al., Nature Biotechnology (2016) 34: 525-527) against the human Gencode v33 indexed transcriptome and annotations. […] 15. ChIP-Seq Experiment and Library Preparation
Because a high percentage of the TCIP1-treated cells contain fragmented DNA by TUNEL assay at 24 hours (FIG. 31, Panel E), many of the “reduced genes” could reflect DNA fragmentation as part of the apoptotic process and digestion to mononucleosomes. Among the group of genes whose expression was most reduced were MYC and its targets (FIGS. 33B, 36C). The top 100 most TCIP1-reduced genes were examined using ChIP-seq data of human transcription factors in blood cancer cell lines, and found the promoters of TCIP1-inhibited genes highly enriched for MYC binding in multiple datasets (FIG. 33, Panel C). This is significant since many DLBCLs are considered to be MYC-dependent.
Almost all differential genes were increasingly activated at 4 hours compared to negligible effects of the control molecules Neg1 and Neg2 (FIG. 35, Panel B).

[3] abbreviates: after 2 hours, of 51,678 consensus peaks.

As to `CNC(=O)COc1cc2cc(Nc3nc(N4CCC(C(=O)NCCCCCCCNC(=O)C[C@@H]5N=C(c6ccc(Cl)cc6)c6c(sc(C)c6C)-n6c(C)nnc65)CC4)ncc3Cl)cc(OC)c2n(C)c1=O` [JWZ-7-7, (S)-1-(5-chloro-4-((8-methoxy-1-methyl-3-(2-(methylamino)-2-oxoethoxy)-2-oxo-1,2-dihydroquinolin-6-yl)amino)pyrimidin-2-yl)-N-(7-(2-(4-(4-chlorophenyl)-2,3,9-trimethyl-6H-thieno[3,2-f][1,2,4]triazolo[4,3-a][1,4]diazepin-6-yl)acetamido)heptyl)piperidine-4-carboxamide], in test [1] (10 nM), the “Time to Pol II serine 2 phosphorylation (transcriptional elongation) at BCL6 targets” value is at most 15 min. For the same molecule, the “Loss of BRD4 from enhancers and super enhancers” value in test [1] (ChIP-seq) was “about 10%”. For the same molecule, the “Fraction of total BRD4 recruited / relocalized to BCL6 target genes” value in test [1] (Karpas 422, one hour) was “about 10%”. For the same molecule, the “BCL6 repressed genes activated” value in test [2] (RNA-seq) was determined as 60%.
For the molecule `CNC(=O)COc1cc2cc(Nc3nc(N4CCC(C(=O)NCCCCCCCNC(=O)C[C@@H]5N=C(c6ccc(Cl)cc6)c6c(sc(C)c6C)-n6c(C)nnc65)CC4)ncc3Cl)cc(OC)c2n(C)c1=O` [TCIP1], the “Increase of BRD4 at promoters of BCL6 target genes / genomic BCL6 binding sites” value in test [1] (ChIP-seq, one hour) was 50%. In test [1] (setting [3]), the H3K27ac peaks decreased was determined as 70 peaks and the H3K27ac peaks increased is listed as 126 peaks. Besides, in test [2] (10 nM, 2 hours, KARPAS422), the “Number of genes activated” value was 140 genes. Also, in test [2] (10 nM, 20 hours, KARPAS422), the “Median change of activated genes” value was determined as 4 fold, the “Number of genes increased in expression” value was 1,674 genes and the “Number of genes reduced in expression” value is listed as 1,364 genes. The “Increase of CDKN1A (p21) expression” value in test [2] (RNA-seq, 20 hours, KARPAS422) is recorded as “about 64 fold”.
